# Reference: the NIST ThermoML archive (doi:10.1021/je900732r)
# Numbers after ± are expanded uncertainties.
# Experiment: mn = molality of the nth substance listed, in mol/kg
# Settings: 101 kPa, Liquid; for speed of sound: Pulse-echo method
compound,measurement,setting,value
[Cu+2].[O-][Cl+3]([O-])([O-])[O-].[O-][Cl+3]([O-])([O-])[O-] [copper perchlorate] + C[S+](C)[O-],mass density,"293.15 K, m1 = 0.01424",1103.32 ± 0.57 kg/m3
same,mass density,"293.15 K, m1 = 0.01956",1104.48 ± 0.57 kg/m3
same,mass density,"293.15 K, m1 = 0.02779",1106.27 ± 0.58 kg/m3
same,mass density,"293.15 K, m1 = 0.03497",1107.84 ± 0.58 kg/m3
same,mass density,"293.15 K, m1 = 0.0419",1109.35 ± 0.59 kg/m3
same,mass density,"293.15 K, m1 = 0.05636",1112.53 ± 0.59 kg/m3
same,mass density,"293.15 K, m1 = 0.07067",1115.69 ± 0.6 kg/m3
same,mass density,"293.15 K, m1 = 0.08366",1118.57 ± 0.61 kg/m3
same,mass density,"293.15 K, m1 = 0.09783",1121.71 ± 0.62 kg/m3
same,mass density,"293.15 K, m1 = 0.1114",1124.76 ± 0.62 kg/m3
same,mass density,"293.15 K, m1 = 0.1251",1127.83 ± 0.63 kg/m3
same,mass density,"293.15 K, m1 = 0.1384",1130.82 ± 0.64 kg/m3
same,mass density,"298.15 K, m1 = 0.01424",1098.31 ± 0.56 kg/m3
same,mass density,"298.15 K, m1 = 0.01956",1099.47 ± 0.56 kg/m3
same,mass density,"298.15 K, m1 = 0.02779",1101.26 ± 0.57 kg/m3
same,mass density,"298.15 K, m1 = 0.03497",1102.83 ± 0.57 kg/m3
same,mass density,"298.15 K, m1 = 0.0419",1104.35 ± 0.58 kg/m3
same,mass density,"298.15 K, m1 = 0.05636",1107.54 ± 0.58 kg/m3
same,mass density,"298.15 K, m1 = 0.07067",1110.7 ± 0.59 kg/m3
same,mass density,"298.15 K, m1 = 0.08366",1113.58 ± 0.6 kg/m3
same,mass density,"298.15 K, m1 = 0.09783",1116.73 ± 0.61 kg/m3
same,mass density,"298.15 K, m1 = 0.1114",1119.78 ± 0.62 kg/m3
same,mass density,"298.15 K, m1 = 0.1251",1122.85 ± 0.62 kg/m3
same,mass density,"298.15 K, m1 = 0.1384",1125.85 ± 0.63 kg/m3
same,mass density,"303.15 K, m1 = 0.01424",1093.29 ± 0.55 kg/m3
same,mass density,"303.15 K, m1 = 0.01956",1094.46 ± 0.56 kg/m3
same,mass density,"303.15 K, m1 = 0.02779",1096.26 ± 0.56 kg/m3
same,mass density,"303.15 K, m1 = 0.03497",1097.83 ± 0.56 kg/m3
same,mass density,"303.15 K, m1 = 0.0419",1099.36 ± 0.57 kg/m3
same,mass density,"303.15 K, m1 = 0.05636",1102.54 ± 0.58 kg/m3
same,mass density,"303.15 K, m1 = 0.07067",1105.71 ± 0.58 kg/m3
same,mass density,"303.15 K, m1 = 0.08366",1108.61 ± 0.59 kg/m3
same,mass density,"303.15 K, m1 = 0.09783",1111.75 ± 0.6 kg/m3
same,mass density,"303.15 K, m1 = 0.1114",1114.82 ± 0.61 kg/m3
same,mass density,"303.15 K, m1 = 0.1251",1117.89 ± 0.61 kg/m3
same,mass density,"303.15 K, m1 = 0.1384",1120.9 ± 0.62 kg/m3
same,mass density,"313.15 K, m1 = 0.01424",1083.26 ± 0.54 kg/m3
same,mass density,"313.15 K, m1 = 0.01956",1084.44 ± 0.54 kg/m3
same,mass density,"313.15 K, m1 = 0.02779",1086.25 ± 0.54 kg/m3
same,mass density,"313.15 K, m1 = 0.03497",1087.83 ± 0.55 kg/m3
same,mass density,"313.15 K, m1 = 0.0419",1089.37 ± 0.55 kg/m3
same,mass density,"313.15 K, m1 = 0.05636",1092.57 ± 0.56 kg/m3
same,mass density,"313.15 K, m1 = 0.07067",1095.76 ± 0.57 kg/m3
same,mass density,"313.15 K, m1 = 0.08366",1098.65 ± 0.57 kg/m3
same,mass density,"313.15 K, m1 = 0.09783",1101.83 ± 0.58 kg/m3
same,mass density,"313.15 K, m1 = 0.1114",1104.9 ± 0.59 kg/m3
same,mass density,"313.15 K, m1 = 0.1251",1108 ± 0.6 kg/m3
same,mass density,"313.15 K, m1 = 0.1384",1111.02 ± 0.6 kg/m3
same,mass density,"323.15 K, m1 = 0.01424",1073.23 ± 0.52 kg/m3
same,mass density,"323.15 K, m1 = 0.01956",1074.42 ± 0.52 kg/m3
same,mass density,"323.15 K, m1 = 0.02779",1076.24 ± 0.53 kg/m3
same,mass density,"323.15 K, m1 = 0.03497",1077.83 ± 0.53 kg/m3
same,mass density,"323.15 K, m1 = 0.0419",1079.36 ± 0.53 kg/m3
same,mass density,"323.15 K, m1 = 0.05636",1082.6 ± 0.54 kg/m3
same,mass density,"323.15 K, m1 = 0.07067",1085.8 ± 0.55 kg/m3
same,mass density,"323.15 K, m1 = 0.08366",1088.72 ± 0.56 kg/m3
same,mass density,"323.15 K, m1 = 0.09783",1091.91 ± 0.56 kg/m3
same,mass density,"323.15 K, m1 = 0.1114",1095 ± 0.57 kg/m3
same,mass density,"323.15 K, m1 = 0.1251",1098.11 ± 0.58 kg/m3
same,mass density,"323.15 K, m1 = 0.1384",1101.14 ± 0.58 kg/m3
same,mass density,"333.15 K, m1 = 0.01424",1063.21 ± 0.5 kg/m3
same,mass density,"333.15 K, m1 = 0.01956",1064.4 ± 0.5 kg/m3
same,mass density,"333.15 K, m1 = 0.02779",1066.24 ± 0.51 kg/m3
same,mass density,"333.15 K, m1 = 0.03497",1067.84 ± 0.51 kg/m3
same,mass density,"333.15 K, m1 = 0.0419",1069.38 ± 0.52 kg/m3
same,mass density,"333.15 K, m1 = 0.05636",1072.64 ± 0.52 kg/m3
same,mass density,"333.15 K, m1 = 0.07067",1075.85 ± 0.53 kg/m3
same,mass density,"333.15 K, m1 = 0.08366",1078.79 ± 0.54 kg/m3
same,mass density,"333.15 K, m1 = 0.09783",1082 ± 0.55 kg/m3
same,mass density,"333.15 K, m1 = 0.1114",1085.1 ± 0.55 kg/m3
same,mass density,"333.15 K, m1 = 0.1251",1088.23 ± 0.56 kg/m3
same,mass density,"333.15 K, m1 = 0.1384",1091.28 ± 0.57 kg/m3
O=S(=O)([O-])C(F)(F)F.O=S(=O)([O-])C(F)(F)F.[Cu+2] [copper(II) trifluoromethanesulfonate] + CO,mass density,"283.15 K, m1 = 0.1213",829.484 ± 0.46 kg/m3
same,mass density,"283.15 K, m1 = 0.1418",834.535 ± 0.46 kg/m3
same,mass density,"283.15 K, m1 = 0.1772",843.312 ± 0.45 kg/m3
same,mass density,"283.15 K, m1 = 0.2047",850.214 ± 0.44 kg/m3
same,mass density,"283.15 K, m1 = 0.231",856.972 ± 0.44 kg/m3
same,mass density,"283.15 K, m1 = 0.2571",863.707 ± 0.43 kg/m3
same,mass density,"283.15 K, m1 = 0.2847",871.006 ± 0.42 kg/m3
same,mass density,"288.15 K, m1 = 0.1213",824.791 ± 0.47 kg/m3
same,mass density,"288.15 K, m1 = 0.1418",829.841 ± 0.46 kg/m3
same,mass density,"288.15 K, m1 = 0.1772",838.612 ± 0.45 kg/m3
same,mass density,"288.15 K, m1 = 0.2047",845.512 ± 0.45 kg/m3
same,mass density,"288.15 K, m1 = 0.231",852.265 ± 0.44 kg/m3
same,mass density,"288.15 K, m1 = 0.2571",858.996 ± 0.44 kg/m3
same,mass density,"288.15 K, m1 = 0.2847",866.292 ± 0.43 kg/m3
same,mass density,"293.15 K, m1 = 0.1213",820.094 ± 0.48 kg/m3
same,mass density,"293.15 K, m1 = 0.1418",825.141 ± 0.47 kg/m3
same,mass density,"293.15 K, m1 = 0.1772",833.908 ± 0.46 kg/m3
same,mass density,"293.15 K, m1 = 0.2047",840.803 ± 0.45 kg/m3
same,mass density,"293.15 K, m1 = 0.231",847.554 ± 0.45 kg/m3
same,mass density,"293.15 K, m1 = 0.2571",854.279 ± 0.44 kg/m3
same,mass density,"293.15 K, m1 = 0.2847",861.57 ± 0.43 kg/m3
same,speed of sound,"298.15 K, m1 = 0.1213",1106 ± 0.6 m/s
same,speed of sound,"298.15 K, m1 = 0.1418",1106.6 ± 0.6 m/s
same,speed of sound,"298.15 K, m1 = 0.1772",1107.4 ± 0.61 m/s
same,speed of sound,"298.15 K, m1 = 0.2047",1108.2 ± 0.61 m/s
same,speed of sound,"298.15 K, m1 = 0.231",1109.1 ± 0.61 m/s
same,speed of sound,"298.15 K, m1 = 0.2571",1109.7 ± 0.61 m/s
same,speed of sound,"298.15 K, m1 = 0.2847",1110.5 ± 0.62 m/s
same,mass density,"298.15 K, m1 = 0.1213",815.38 ± 0.48 kg/m3
same,mass density,"298.15 K, m1 = 0.1418",820.428 ± 0.48 kg/m3
same,mass density,"298.15 K, m1 = 0.1772",829.19 ± 0.47 kg/m3
same,mass density,"298.15 K, m1 = 0.2047",836.081 ± 0.46 kg/m3
same,mass density,"298.15 K, m1 = 0.231",842.828 ± 0.45 kg/m3
same,mass density,"298.15 K, m1 = 0.2571",849.545 ± 0.45 kg/m3
same,mass density,"298.15 K, m1 = 0.2847",856.839 ± 0.44 kg/m3
same,mass density,"303.15 K, m1 = 0.1213",810.649 ± 0.49 kg/m3
same,mass density,"303.15 K, m1 = 0.1418",815.692 ± 0.48 kg/m3
same,mass density,"303.15 K, m1 = 0.1772",824.45 ± 0.47 kg/m3
same,mass density,"303.15 K, m1 = 0.2047",831.338 ± 0.47 kg/m3
same,mass density,"303.15 K, m1 = 0.231",838.081 ± 0.46 kg/m3
same,mass density,"303.15 K, m1 = 0.2571",844.805 ± 0.45 kg/m3
same,mass density,"303.15 K, m1 = 0.2847",852.088 ± 0.45 kg/m3
same,mass density,"308.15 K, m1 = 0.1213",805.885 ± 0.5 kg/m3
same,mass density,"308.15 K, m1 = 0.1418",810.942 ± 0.49 kg/m3
same,mass density,"308.15 K, m1 = 0.1772",819.682 ± 0.48 kg/m3
same,mass density,"308.15 K, m1 = 0.2047",826.565 ± 0.47 kg/m3
same,mass density,"308.15 K, m1 = 0.231",833.302 ± 0.47 kg/m3
same,mass density,"308.15 K, m1 = 0.2571",840.033 ± 0.46 kg/m3
same,mass density,"308.15 K, m1 = 0.2847",847.311 ± 0.45 kg/m3
same,mass density,"313.15 K, m1 = 0.1213",801.107 ± 0.5 kg/m3
same,mass density,"313.15 K, m1 = 0.1418",806.159 ± 0.5 kg/m3
same,mass density,"313.15 K, m1 = 0.1772",814.901 ± 0.48 kg/m3
same,mass density,"313.15 K, m1 = 0.2047",821.777 ± 0.48 kg/m3
same,mass density,"313.15 K, m1 = 0.231",828.513 ± 0.47 kg/m3
same,mass density,"313.15 K, m1 = 0.2571",835.231 ± 0.47 kg/m3
same,mass density,"313.15 K, m1 = 0.2847",842.504 ± 0.46 kg/m3
